Assay [1] concerns Shigella flexneri intracellular motility in PtK2 cells. The note with it: cited from earlier work.
For assay [2] the test system is unchanged. Format: cell-based.
The mark [3] stands for this setting: microinjected peptide, ref Zeile et al. (1996).

Read-outs that look alike come from different tables or passages of the source.

As to poly- L-proline [poly-L-proline], in assay [1] (poly-L-proline intracellular concentration 1 μM, ref Zeile et al., 1996), the “effect on Shigella motility” value is “failed to inhibit motility”. Take Gly-Pro-Pro-Pro-Pro Pro [ABM-2 peptide]: in assay [1] (setting [3]), the “effect on Shigella motility” value is “blocks Shigella actin-based motility”. On to FEFPPPPTDE [ActA ABM-1 peptide], for which the “effect on Shigella motility” value in assay [1] (setting [3]) is given as “arrested intracellular Shigella motility”.

B1: full-length vinculin: Full-length 120-kD human platelet vinculin (protein, UniProt P18206 1-1134, looked up)
Vinculin: MPVFHTRTIESILEPVAQQISHLVIMHEEGEVDGKAIPDLTAPVAAVQAAVSNLVRVGKETVQTTEDQILKRDMPPAFIKVENACTKLVQAAQMLQSDPYSVPARDYLIDGSRGILSGTSDLLLTFDEAEVRKIIRVCKGILEYLTVAEVVETMEDLVTYTKNLGPGMTKMAKMIDERQQELTHQEHRVMLVNSMNTVKELLPVLISAMKIFVTTKNSKNQGIEEALKNRNFTVEKMSAEINEIIRVLQLTSWDEDAWASKDTEAMKRALASIDSKLNQAKGWLRDPSASPGDAGEQAIRQILDEAGKVGELCAGKERREILGTCKMLGQMTDQVADLRARGQGSSPVAMQKAQQVSQGLDVLTAKVENAARKLEAMTNSKQSIAKKIDAAQNWLADPNGGPEGEEQIRGALAEARKIAELCDDPKERDDILRSLGEISALTSKLADLRRQGKGDSPEARALAKQVATALQNLQTKTNRAVANSRPAKAAVHLEGKIEQAQRWIDNPTVDDRGVGQAAIRGLVAEGHRLANVMMGPYRQDLLAKCDRVDQLTAQLADLAARGEGESPQARALASQLQDSLKDLKARMQEAMTQEVSDVFSDTTTPIKLLAVAATAPPDAPNREEVFDERAANFENHSGKLGATAEKAAAVGTANKSTVEGIQASVKTARELTPQVVSAARILLRNPGNQAAYEHFETMKNQWIDNVEKMTGLVDEAIDTKSLLDASEEAIKKDLDKCKVAMANIQPQMLVAGATSIARRANRILLVAKREVENSEDPKFREAVKAASDELSKTISPMVMDAKAVAGNISDPGLQKSFLDSGYRILGAVAKVREAFQPQEPDFPPPPPDLEQLRLTDELAPPKPPLPEGEVPPPRPPPPEEKDEEFPEQKAGEVINQPMMMAARQLHDEARKWSSKPGIPAAEVGIGVVAEADAADAAGFPVPPDMEDDYEPELLLMPSNQPVNQPILAAAQSLHREATKWSSKGNDIIAAAKRMALLMAEMSRLVRGGSGTKRALIQCAKDIAKASDEVTRLAKEVAKQCTDKRIRTNLLQVCERIPTISTQLKILSTVKATMLGRTNISDEESEQATEMLVHNAQNLMQSVKETVREAEAASIKIRTDAGFTLRWVRKTPWYQ
For the molecule B1, in assay [2] (estimated intracellular 0.12 μM (identical to p90)), the “effect on bacterial migration speeds” value is “failed to cause any significant change”. The “effect on Shigella intracellular motility” value in assay [2] (needle concentration 2.2 μM, estimated intracellular concentration 0.22 μM) is on record as “failed to accelerate”.

The values are drawn from paper PMC2132544 (The Journal of Cell Biology, 1997).
